Values of other authors as cited in patent publication US10264790B2, “Use of certain herbicide combinations based on iodosulfuron in teff plants” (BAYER CROPSCIENCE AKTIENGESELLSCHAFT, priority 2016, dated 2019).
Like-named read-outs stand apart in the source and are kept apart here.

Experiments:
teff [1] = details: for injury to teff: applied postemergence; for levels of weed control, teff safety and teff yields: postemergence applications
teff (Eragrostis tef) = details: for yield reductions: field studies Kansas, teff; for injury on teff: in vivo
teff [2] = details: for selectivity in teff: with or without the safener
[3] = system: Phalaris paradoxa and Setaria pallidefusca; details: pot experiments; applied pre-emergence (diclofop-methyl only with a safener)
[4] = postemergence treatments, field studies Oregon 2009

CCc1cc(C)cc(CC)c1-c1c(OC(=O)C(C)(C)C)n2n(c1=O)CCOCC2 [pinoxaden]
injury to teff (teff [1]; field studies Oregon 2009): 70%

COc1cc(OC)nc(NC(=O)NS(=O)(=O)c2cc(C(=O)O)ccc2CNS(C)(=O)=O)n1 [mesosulfuron, 2-[(4,6-dimethoxypyrimidin-2-ylcarbamoyl)sulfamoyl]-α-methanesulfonamido-p-toluic acid]
injury to teff (teff [1]; field studies Oregon 2009): 10%

CS(=O)(=O)c1ccc(C(=O)C2C(=O)CCCC2=O)c([N+](=O)[O-])c1 [mesotrione]
injury to teff (teff [1]; field studies Oregon 2009): 63%
injury to the teff (teff [1]; applied preemergence, field studies Oregon 2009): 100%
yield reductions (teff (Eragrostis tef)): 30%

COc1cc(OC)nc(NC(=O)NS(=O)(=O)c2c(C(=O)O)c(Cl)nn2C)n1 [halosulfuron]
injury on teff (teff (Eragrostis tef)): less than 5%

CCC(CC)Nc1c([N+](=O)[O-])cc(C)c(C)c1[N+](=O)[O-] [pendimethalin]
selectivity in teff (teff [2]; pot experiments): failed to show selectivity

COc1cc(OC)nc(NC(=O)NS(=O)(=O)c2ncccc2C(=O)N(C)C)n1 [nicosulfuron]
injury to teff (teff [1]; field studies Oregon 2009): 20%

Nc1c(Cl)c(F)nc(OCC(=O)O)c1Cl [fluroxypyr]
teff injury (in words) (teff [1]; in vivo): little or no teff injury

COc1nc(C)nc(N(C)C(=O)NS(=O)(=O)c2ccccc2C(=O)O)n1 [tribenuron]
teff injury (in words) (teff [1]; [4]): little or no teff injury

CCC/C(=N\OCC)C1=C(O)CC(CC(C)SCC)CC1=O (centres unmarked) [sethoxydim]
yield reductions (teff (Eragrostis tef)): 50%

CCc1cccc(CC)c1N(COC)C(=O)CCl [alachlor]
selectivity in teff (teff [2]; pot experiments): failed to show selectivity

O=C(O)c1nc(Cl)ccc1Cl [clopyralid]
teff injury (in words) (teff [1]; [4]): little or no teff injury

COc1nc(C)nc(=NC(=O)NS(=O)(=O)c2ccccc2C(=O)O)[nH]1 [metsulfuron]
levels of weed control, teff safety and teff yields (teff [1]; field studies Oregon 2009): highest levels
teff injury (in words) (teff [1]; [4]): little or no teff injury

COc1nc(C)nc(NC(=O)NS(=O)(=O)c2ccccc2Cl)n1 [chlorsulfuron]
teff injury (in words) (teff [1]; in vivo): little or no teff injury
levels of weed control, teff safety and teff yields (teff [1]; field studies Oregon 2009): highest levels
control of Phalaris paradoxa and Setaria pallidefusca [3]: controlled both weed species
safety / tolerance on teff (teff [2]; in vivo): safe on teff

COc1nn(C(=O)NS(=O)(=O)c2ccccc2OC(F)(F)F)c(=O)n1C [flucarbazone]
teff injury (in words) (teff [1]; [4]): little or no teff injury

Cn1nc(-c2cc(OCC(=O)O)c(Cl)cc2F)c(Cl)c1OC(F)F [pyraflufen]
teff injury (in words) (teff [1]; [4]): little or no teff injury

COc1ccc(NC(=O)N(C)C)cc1Cl [metoxuron]
selectivity in teff (teff [2]; pot experiments): failed to show selectivity

COc1nc(C)nc(NC(=O)NS(=O)(=O)c2ccccc2CCC(F)(F)F)n1 [prosulfuron]
injury on teff (teff (Eragrostis tef)): less than 5%

O=C(O)COc1ccc(Cl)cc1Cl [2,4-D, (2,4-dichlorophenoxy)acetic acid]
injury on teff (teff (Eragrostis tef)): less than 5%

COC(=O)C(C)Oc1ccc(Oc2ccc(Cl)cc2Cl)cc1 (centres unmarked) [Diclofop-methyl]
control of Phalaris paradoxa and Setaria pallidefusca [3]: controlled both weeds
safety / tolerance on teff (teff [2]; pot experiments, applied pre-emergence (diclofop-methyl only with a safener)): tolerated by teff
